Results as given in ChEMBL document CHEMBL4680227, “Design and synthesis of selective degraders of EGFR mutant” (Eur J Med Chem, 2020).

Key:
[1] = target: von Hippel-Lindau disease tumor suppressor/Epidermal growth factor receptor (Homo sapiens, UniProt P00533+P40337, T790M/L858R); assay: Protac activity at VHL/EGFR L858R/T790M mutant in human NCI-H1975 cells assessed as EGFR degradation by Western blot analysis; assay type: cell-based
[2] = target: von Hippel-Lindau disease tumor suppressor/Epidermal growth factor receptor (Homo sapiens, UniProt P00533+P40337); assay: Protac activity at VHL/EGFR in human A431 cells assessed as EGFR degradation by Western blot analysis; assay type: cell-based; conditions: a-431
[3] = target: Protein cereblon/Epidermal growth factor receptor (Homo sapiens, UniProt P00533+Q96SW2); assay: Protac activity at CRBN/EGFR in human A431 cells assessed as EGFR degradation by Western blot analysis; assay type: cell-based; conditions: a-431
[4] = target: E3 ubiquitin-protein ligase Mdm2/Epidermal growth factor receptor (Homo sapiens, UniProt Q00987+P00533); assay: Protac activity at MDM2/EGFR in human A431 cells assessed as EGFR degradation by Western blot analysis; assay type: cell-based; conditions: a-431
[5] = target: E3 ubiquitin-protein ligase Mdm2/Epidermal growth factor receptor (Homo sapiens, UniProt Q00987+P00533, T790M/L858M); assay: (§1) Protac activity at MDM2/EGFR L858R/T790M mutant in human NCI-H1975 cells assessed as EGFR degradation by Western blot analysis; assay type: cell-based
[6] = test system: E3 ubiquitin-protein ligase Mdm2/Epidermal growth factor receptor (Homo sapiens), Q00987+P00533 [T790M,L858M]; assay: as §1; assay type: cell-based
[7] = target: Epidermal growth factor receptor (Homo sapiens, UniProt P00533, T790M/L858R); assay: Induction of EGFR L858R/T790M mutant degradation in human NCI-H1975 cells by Western blot analysis
[8] = target: Epidermal growth factor receptor (Homo sapiens, UniProt P00533); assay: Induction of EGFR degradation in human A431 cells by Western blot analysis; conditions: a-431

Sequence of von Hippel-Lindau disease tumor suppressor/Epidermal growth factor receptor (Homo sapiens, UniProt P00533+P40337) (P00533 whole entry): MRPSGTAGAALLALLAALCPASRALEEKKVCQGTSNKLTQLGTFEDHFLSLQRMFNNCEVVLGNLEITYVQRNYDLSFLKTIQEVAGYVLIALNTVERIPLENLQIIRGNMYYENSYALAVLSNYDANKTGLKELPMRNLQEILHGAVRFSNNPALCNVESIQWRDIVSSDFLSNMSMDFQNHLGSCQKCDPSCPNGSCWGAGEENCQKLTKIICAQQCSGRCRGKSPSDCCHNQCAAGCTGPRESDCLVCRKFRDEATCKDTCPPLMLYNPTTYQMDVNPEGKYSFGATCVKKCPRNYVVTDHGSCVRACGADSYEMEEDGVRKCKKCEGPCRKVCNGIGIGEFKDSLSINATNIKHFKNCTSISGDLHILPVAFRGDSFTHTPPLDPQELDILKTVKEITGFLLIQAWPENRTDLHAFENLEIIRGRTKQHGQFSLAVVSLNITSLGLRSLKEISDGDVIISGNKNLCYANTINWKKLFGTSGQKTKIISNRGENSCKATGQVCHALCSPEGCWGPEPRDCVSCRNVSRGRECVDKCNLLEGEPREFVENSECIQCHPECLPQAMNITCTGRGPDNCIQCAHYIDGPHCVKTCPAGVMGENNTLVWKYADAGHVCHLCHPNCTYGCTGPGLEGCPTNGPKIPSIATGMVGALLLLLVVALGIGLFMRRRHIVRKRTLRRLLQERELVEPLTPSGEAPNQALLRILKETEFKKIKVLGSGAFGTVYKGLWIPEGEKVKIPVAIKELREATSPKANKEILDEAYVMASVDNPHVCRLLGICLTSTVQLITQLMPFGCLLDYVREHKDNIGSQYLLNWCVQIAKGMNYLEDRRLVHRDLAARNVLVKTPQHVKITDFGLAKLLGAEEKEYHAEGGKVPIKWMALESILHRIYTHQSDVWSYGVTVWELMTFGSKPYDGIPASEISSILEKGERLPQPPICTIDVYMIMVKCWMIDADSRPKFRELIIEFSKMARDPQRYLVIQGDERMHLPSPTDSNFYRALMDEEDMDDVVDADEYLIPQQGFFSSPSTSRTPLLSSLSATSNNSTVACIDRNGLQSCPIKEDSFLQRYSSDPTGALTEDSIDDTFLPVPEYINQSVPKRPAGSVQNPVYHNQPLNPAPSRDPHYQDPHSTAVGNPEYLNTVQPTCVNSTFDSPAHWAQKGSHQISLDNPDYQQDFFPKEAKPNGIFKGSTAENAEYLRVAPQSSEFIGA
Sequence of von Hippel-Lindau disease tumor suppressor/Epidermal growth factor receptor (Homo sapiens, UniProt P00533+P40337) (P40337 whole entry): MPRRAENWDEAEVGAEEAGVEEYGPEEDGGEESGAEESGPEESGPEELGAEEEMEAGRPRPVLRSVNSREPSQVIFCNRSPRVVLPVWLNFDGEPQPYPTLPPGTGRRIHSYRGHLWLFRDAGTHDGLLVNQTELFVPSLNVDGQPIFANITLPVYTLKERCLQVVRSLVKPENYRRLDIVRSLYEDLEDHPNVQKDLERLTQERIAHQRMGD
Sequence of von Hippel-Lindau disease tumor suppressor/Epidermal growth factor receptor (Homo sapiens, UniProt P00533+P40337, T790M/L858R) (P00533 whole entry, looked up, stated change not applied): as the sequence (P00533 whole entry) above
Sequence of von Hippel-Lindau disease tumor suppressor/Epidermal growth factor receptor (Homo sapiens, UniProt P00533+P40337, T790M/L858R) (P40337 whole entry, looked up, stated change not applied): as the sequence (P40337 whole entry) above
Sequence of E3 ubiquitin-protein ligase Mdm2/Epidermal growth factor receptor (Homo sapiens, UniProt Q00987+P00533) (Q00987 whole entry): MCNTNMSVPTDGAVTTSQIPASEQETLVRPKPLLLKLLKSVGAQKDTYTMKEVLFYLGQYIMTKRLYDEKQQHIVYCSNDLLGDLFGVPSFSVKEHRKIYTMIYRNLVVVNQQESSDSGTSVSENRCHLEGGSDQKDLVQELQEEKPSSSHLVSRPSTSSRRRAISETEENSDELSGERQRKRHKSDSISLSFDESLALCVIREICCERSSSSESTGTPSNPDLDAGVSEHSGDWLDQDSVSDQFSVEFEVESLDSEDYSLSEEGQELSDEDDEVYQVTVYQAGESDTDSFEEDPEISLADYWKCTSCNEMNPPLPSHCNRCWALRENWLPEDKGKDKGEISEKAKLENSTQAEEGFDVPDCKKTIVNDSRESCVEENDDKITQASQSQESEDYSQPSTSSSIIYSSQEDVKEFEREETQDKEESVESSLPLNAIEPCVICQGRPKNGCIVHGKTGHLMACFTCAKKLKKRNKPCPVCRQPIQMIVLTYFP
Sequence of E3 ubiquitin-protein ligase Mdm2/Epidermal growth factor receptor (Homo sapiens, UniProt Q00987+P00533) (P00533 whole entry): as the sequence (P00533 whole entry) above

`C=CC(=O)Nc1cccc(-n2c(=O)cc(C)c3cnc(Nc4ccc(N5CCN(CCCCCCCC(=O)N[C@H](C(=O)N6C[C@H](O)C[C@H]6C(=O)NCc6ccc(-c7scnc7C)cc6)C(C)(C)C)CC5)cc4OC)nc32)c1` was tested, and the DC50 [1] was 466 nM and the DC50 [2] was > 2000 nM.
For `C=CC(=O)Nc1cccc(-n2c(=O)cc(C)c3cnc(Nc4ccc(N5CCN(C(=O)CCCCCCCCCCC(=O)Nc6cccc7c6C(=O)N(C6CCC(=O)NC6=O)C7=O)CC5)cc4OC)nc32)c1` (stereo unspecified), the DC50 [3] was > 2000 nM.
With `C=CC(=O)Nc1cccc(-n2c(=O)cc(C)c3cnc(Nc4ccc(N5CCN(CCCCCCCCCC(=O)N[C@H](C(=O)N6C[C@H](O)C[C@H]6C(=O)NCc6ccc(-c7scnc7C)cc6)C(C)(C)C)CC5)cc4OC)nc32)c1` the DC50 [1] was 132 nM and the DC50 [2] was > 2000 nM.
With `C=CC(=O)Nc1cccc(-n2c(=O)cc(C)c3cnc(Nc4ccc(N5CCN(C(=O)CCCCCCCCCNC(=O)c6ccc(NC(=O)[C@@H]7N[C@@H](CC(C)(C)C)[C@](C#N)(c8ccc(Cl)cc8F)[C@H]7c7cccc(Cl)c7F)c(OC)c6)CC5)cc4OC)nc32)c1` the DC50 [4] was > 2000 nM and the DC50 [5] was 313 nM.
`C=CC(=O)Nc1cccc(-n2c(=O)cc(C)c3cnc(Nc4ccc(N5CCN(C(=O)CCCCCCCCCCCNC(=O)c6ccc(NC(=O)[C@@H]7N[C@@H](CC(C)(C)C)[C@](C#N)(c8ccc(Cl)cc8F)[C@H]7c7cccc(Cl)c7F)c(OC)c6)CC5)cc4OC)nc32)c1` was tested, and the DC50 [4] was > 2000 nM, the Activity [6] was “Dose-dependent effect” and the DC50 [5] was 264 nM.
`C=CC(=O)Nc1cccc(-n2c(=O)cc(C)c3cnc(Nc4ccc(N5CCN(C(=O)CCCCCCCCC(=O)N[C@H](C(=O)N6C[C@H](O)C[C@H]6C(=O)NCc6ccc(-c7scnc7C)cc6)C(C)(C)C)CC5)cc4OC)nc32)c1` was tested, and the DC50 [1] was 69 nM and the DC50 [2] was > 2000 nM.
With `C=CC(=O)Nc1cccc(-n2c(=O)cc(C)c3cnc(Nc4ccc(N5CCN(CCCC(=O)N[C@H](C(=O)N6C[C@H](O)C[C@H]6C(=O)NCc6ccc(-c7scnc7C)cc6)C(C)(C)C)CC5)cc4OC)nc32)c1` the DC50 [2] was > 2000 nM.
In the case of `C=CC(=O)Nc1cccc(-n2c(=O)cc(C)c3cnc(Nc4ccc(N5CCN(C)CC5)cc4OC)nc32)c1`, the DC50 [7] is reported as > 2000 nM and the DC50 [8] is reported as > 2000 nM.
With `C=CC(=O)Nc1cccc(-n2c(=O)cc(C)c3cnc(Nc4ccc(N5CCN(C(=O)CCCCC(=O)N[C@H](C(=O)N6C[C@H](O)C[C@H]6C(=O)NCc6ccc(-c7scnc7C)cc6)C(C)(C)C)CC5)cc4OC)nc32)c1` the DC50 [2] was > 2000 nM.
